Several values for one entry are separate records, joined by “and”; a condition that tells them apart may be missing. Equal values may be shown once.
Key:
[1] = system: four-vessel occlusion model of rats; assay: Morris water maze Hidden test in four-vessel occlusion model; format: in vivo, rat; settings: for Hidden test Latency / Hidden test Total distance moved: 4-VO rats; for Hidden test Latency / Hidden test Total distance moved / Time to reach the platform in the Hidden test, in words / Total distance moved in the Hidden test, in words: oral 28 d: arundic acid 30, taltirelin 10, combination 10+3 mg/kg/day; for Hidden test, At the time of grouping Latency: before administration, 1 week after 4-VO; for Time to reach the platform in the Hidden test, in words / Total distance moved in the Hidden test, in words: vs Group 2 control
Method: A Morris water maze test was performed by using a circular pool (168 cm in diameter and 40 cm in depth) filled with water, and a platform (10 cm in diameter and 30 cm in height) for escape of rats. In Zone 3, one transparent plastic escape platform (10 cm in diameter and 30 cm in height) was set at a location 40 cm away from the center of the pool, and […] away from the periphery of the pool. The water temperature of the water maze during the experiment was kept at 23° C. (±1.5° C.). A Hidden test was performed at the time of grouping 1 week after four-vessel occlusion, and on the day following the final administration of test drugs. For the Hidden test, the pool was filled with water to a height of 1 cm above the platform (water depth: 31 cm). A Transfer test was performed 3 days after the final administration of test drugs. For the Transfer test, the platform was removed, and the pool was filled with water to a water depth of 31 cm. To enable the rats to memorize surrounding various spatial arrangements, cues, such as posters and photographs, were placed on the wall. The cues always remained at the same locations during the experiment (FIG. 1: a plan view of Morris water maze, and the laboratory layout).
3) One week after restoration of blood flow, 5 trials of the Hidden test according to the Morris water maze test were performed with intervals of 30 minutes, and a cut-off time of 180 seconds. The rats were grouped by using swimming escape latency (time to reach the platform) as an index. After grouping, oral administration of the drug(s) was started. 4) The drug(s) were orally administered for 28 days. 5) On the day following the final administration of the drug, 5 trials of the Hidden Test for assessing spatial memory by using a water maze were performed with intervals of 30 minutes, and a cut-off time of 180 seconds. After 30 minutes, the platform was removed, and a Transfer test was performed with the pool being filled with water to a water depth of 31 cm.
From the starting point in Zone 1, the rats were thrown into a water maze with their heads being directed toward the outside of the water maze. The location of the platform was fixed at a point (corresponding to E in FIG. 1) on the east side in the water maze (corresponding to Zone 3 in FIG. 1). The maximum time of one trial was 180 seconds. When a rat reached the platform within 180 seconds, the rat was allowed to stand on the platform for 15 seconds. […] This rat was expected to learn the location of the platform by using surrounding various spatial arrangements as cues during the 180 seconds of the Hidden test and 15 seconds of being allowed to stand on the platform (Hidden test). In the Hidden test, swimming trajectory to the goal, swimming distance, swimming escape latency (time to reach the platform), and average swimming speed were measured per trial.
The behaviors of the rats in each trial were automatically analyzed with a CCD camera and the SMART (produced by Kyoto L Giken) behavioral analysis program by binarization of the white color of rats' fur and black ash color of the surrounding area.
Significant differences between the groups in spatial memory according to the Morris water maze method were determined by the nonparametric Dunnett's multiple comparison test. 6) After completion of the Morris water maze test, the brain of each rat was perfusion-fixed with 4% paraformaldehyde. The details are as follows.

[2] = system: four-vessel occlusion model of rats; assay: Morris water maze Transfer test in four-vessel occlusion model; format: in vivo, rat; settings: 4-VO rats, oral 28 d: arundic acid 30, taltirelin 10, combination 10+3 mg/kg/day; for Residence time in Zone 3: Table 6
Method: The water temperature of the water maze during the experiment was kept at 23° C. […] A Transfer test was performed 3 days after the final administration of test drugs. For the Transfer test, the platform was removed, and the pool was filled with water to a water depth of 31 cm. To enable the rats to memorize surrounding various spatial arrangements, cues, such as posters and photographs, were placed on the wall. The cues always remained at the same locations during the experiment (FIG. 1: a plan view of Morris water maze, and the laboratory layout). Three days after the final administration of the test drug, the platform was removed and a Transfer test in which the pool was filled with water to a water depth of 31 cm was performed. […] Each rat was given only one trial, and the time was 180 seconds. The starting point was on the side opposite to the platform (see FIG. 1). In the Transfer test, the time spent in each Zone and the number of times the rats crossed over the platform location were determined. The behaviors of the rats in each trial were automatically analyzed with a CCD camera and the SMART (produced by Kyoto […]) behavioral analysis program by binarization of the white color of rats' fur and black ash color of the surrounding area. Significant differences between the groups in spatial memory according to the Morris water maze method were determined by the nonparametric Dunnett's multiple comparison test. 6) After completion of the Morris water maze test, the brain of each rat was perfusion-fixed with 4% paraformaldehyde. The details are as follows.

[3] = system: patients with Alzheimer's disease or patients with cerebrovascular dementia; settings: reported in literature; cited from earlier work
[4] = system: rats with anoxia-induced amnesia; settings: Non-patent Literature 1; cited from earlier work
[5] = system: rats with lesioned bilateral regions including the ventral globus pallidus, substantia innominata, and preoptic area (BFs); settings: Non-patent Literature 1; cited from earlier work
[6] = system: reactive astrocytes; settings: Patent Literature 2; cited from earlier work

Row | Compound | Hidden test Latency ([1]; Mean ± S.E.) | Hidden test Total distance moved ([1]; Mean ± S.E.) | Hidden test, At the time of grouping Latency ([1]; Mean ± S.E.) | Hidden test Latency ([1]; individual rat, 3 mg/kg/day) | Hidden test Total distance moved ([1]; individual rat, 3 mg/kg/day) | Hidden test, At the time of grouping Latency ([1]; individual rat) | Time to reach the platform in the Hidden test, in words [1] | Total distance moved in the Hidden test, in words [1] | Residence time in Zone 1 ([2]; Mean ± S.E.) | Residence time in Zone 1 (%) ([2]; Mean ± S.E.) | Residence time in Zone 2 ([2]; Mean ± S.E.) | Residence time in Zone 2 (%) ([2]; Mean ± S.E.) | Residence time in Zone 3 (%) ([2]; Mean ± S.E.) | Residence time in Zone 4 ([2]; Mean ± S.E.) | Residence time in Zone 4 (%) ([2]; Mean ± S.E.) | Transfer test Platform Crossing Times ([2]; Mean ± S.E.) | Transfer test Residence time in Zone 3 ([2]; Mean ± S.E.) | Residence time in Zone 3 ([2]; Mean ± S.E.) | Residence time in Zone 3 ([2]; individual rat, 3 mg/kg/day) | Residence time in Zone 1 ([2]; individual rat, 3 mg/kg/day) | also measured
1 | CN1C(=O)C[C@@H](C(=O)N[C@@H](Cc2c[nH]cn2)C(=O)N2CCC[C@H]2C(N)=O)NC1=O [Taltirelin, N-[(4S)-1-methyl-2,6-dioxohexahydropyrimidine-4-carbonyl]-L-histidyl-L-prolinamide] | 83 ± 6.6 s | 16.1 ± 1.6 m | 102 ± 8.3 s | 68.9 s and 88.1 s and 76.4 s and 99.1 s | 19.8 m and 15.0 m and 12.3 m and 17.1 m | 100.1 s and 97.2 s and 85.5 s and 124.8 s | no improvement in time to reach the platform | not considered to be significantly improved | 39.3 ± 5.4 s | 21.7 ± 3.0% | 34.2 ± 10.3 s | 19.0 ± 5.8% | 31.6 ± 2.4% | 50.2 ± 8.5 s | 27.6 ± 4.6% | 5.3 ± 1.4 | 57 ± 4.1 s | 57.1 ± 4.1 s | 58.5 s and 66.9 s and 47.1 s and 56 s | 24.5 s and 44.4 s and 38.6 s and 49.7 s | Residence time in Zone 1 (%) ([2]; individual rat, 3 mg/kg/day): 13.6% and 24.8% and 21.2% and 27.3%; Residence time in Zone 2 ([2]; individual rat, 3 mg/kg/day): 63 s and 30.4 s and 29.6 s and 14.1 s; Residence time in Zone 2 (%) ([2]; individual rat, 3 mg/kg/day): 35.1% and 17.0% and 16.2% and 7.7%; Residence time in Zone 3 (%) ([2]; individual rat, 3 mg/kg/day): 32.6% and 37.3% and 25.8% and 30.7%; Residence time in Zone 4 ([2]; individual rat, 3 mg/kg/day): 33.6 s and 37.5 s and 67 s and 62.5 s; Residence time in Zone 4 (%) ([2]; individual rat, 3 mg/kg/day): 18.7% and 20.9% and 36.8% and 34.3%; Transfer test Platform Crossing Times ([2]; individual rat, 3 mg/kg/day): 8 and 7 and 4 and 2; Improvement effect compared with TRH [3]: higher improvement effect thereon than TRH; Memory retrieval, one-trial passive avoidance learning test [4]: improve memory retrieval; Memory retrieval, active avoidance learning test [5]: improve memory retrieval
2 | CCCCCC[C@@H](CCC)C(=O)O [Arundic acid, (R)-(−)-2-propyloctanoic acid] | 78 ± 5.2 s | 17.4 ± 2.1 m | 102 ± 9.2 s | 73.8 s and 82.2 s and 90.3 s and 66.5 s | 13.0 m and 15.8 m and 17.9 m and 22.8 m | 112.5 s and 86.9 s and 123.2 s and 87 s | no improvement in time to reach the platform | not considered to be significantly improved | 41.6 ± 8.7 s | 22.8 ± 4.3% | 42.0 ± 10.9 s | 23.0 ± 5.5% | 34.6 ± 5.1% | 34.9 ± 83 s | 19.6 ± 4.7% | 5.5 ± 1.4 | 62 ± 8.4 s | 61.9 ± 8.4 s | 82.9 s and 66.0 s and 43.6 s and 55.2 s | 24.0 s and 32.5 s and 63.9 s and 45.8 s | Spatial learning capacity and spatial memory capacity in the Morris water maze test, in words ([1]; oral 28 d: arundic acid 30, combination 10+3 mg/kg/day): did not affect spatial learning capacity and spatial memory capacity; Residence time in Zone 1 (%) ([2]; individual rat, 3 mg/kg/day): 13.3% and 19.3% and 33.3% and 25.4%; Residence time in Zone 2 ([2]; individual rat, 3 mg/kg/day): 16.9 s and 34.4 s and 68.2 s and 48.3 s; Residence time in Zone 2 (%) ([2]; individual rat, 3 mg/kg/day): 9.4% and 20.4% and 35.5% and 26.8%; Residence time in Zone 3 (%) ([2]; individual rat, 3 mg/kg/day): 46.0% and 39.1% and 22.7% and 30.6%; Residence time in Zone 4 ([2]; individual rat, 3 mg/kg/day): 56.5 s and 35.7 s and 16.4 s and 31.0 s; Residence time in Zone 4 (%) ([2]; individual rat, 3 mg/kg/day): 31.3% and 21.2% and 8.5% and 17.2%; Transfer test Platform Crossing Times ([2]; individual rat, 3 mg/kg/day): 6 and 9 and 2 and 5; GABAA receptor responsiveness [6]: GABAA receptor responsiveness is recovered

— US10828303B2, “Composition comprising combination of TRH analog with arundic acid, and pharmaceutically acceptable salt of arundic acid” (Brivention Pharmaceutical (Shanghai) Inc., priority 2016, dated 2020)
